Source: article PMC12022980, “Rational Design of PROTAC Linkers Featuring Ferrocene as a Molecular Hinge to Enable Dynamic Conformational Changes” (Journal of the American Chemical Society, 2025)
pIC50: −log10 of the molar value. Where two headings read alike, the source gives them in different places.

Legend:
[1] = LogD7.4 shake flask (octanol/phosphate buffer); assay type: physicochemical; details: octanol/potassium phosphate buffer, pH 7.4
Source text: The modulation of lipophilicity could play a critical role in optimizing PROTACs. We thus utilized traditionally measured LogD values from shake flask experiments alongside chromatographically assessed ChromLogD values.[72] […] By incorporating ferrocene, permeability may be improved due to the feature of promoting IMHB-mediated compact conformations, while also balancing the lipophilicity of the polar ligand/PEG linkers. However, while sufficient lipophilicity is required for passive uptake over the cell membrane, it may also drive poor aqueous solubility.[73]
For the permeabilised-cell assay, 10 µL of digitonin was added, and plates were incubated in darkness for 5 minutes to allow permeabilisation. In each well 10 µL of the 10x PROTAC and vehicle control dilutions were dispensed. A 100x NanoBRET tracer solution (50 µM for VHL permeabilised-cell assay) was prepared with 100% DMSO, then diluted to a 20x solution with tracer dilution buffer. A 5 µL volume of tracer was dispensed into each well at a final concentration of 0.5 µM, and the plate was mixed at 300 RPM for 15 seconds. Finally, 50 µL of a 3x substrate solution (8.8 µL NanoBRET Nano-Glo substrate and 3,500 µL Opti-MEM) was added, and plates were incubated for 1 minute at room temperature before reading on a GloMax Discover as […]
HiBiT Lytic Assay with Zosuquidar Co-treatment […]
Luminescence was measured using the GloMax® Multiplex Luminescence and Fluorescence Protocol for 96-well plates. The luminescence signal for each well was normalised to the fluorescence signal and further normalised to the mean values from iPrOH-treated controls, then expressed as a ratio relative to the vehicle control. Curve fitting and DC50 values were determined in GraphPad Prism v.10.0.3 using nonlinear regression with a three-parameter logistic model to calculate DC50 values. […]
of 1 mL/min and a column temperature of 40 °C. […] Data were analysed with Shimadzu Open Solution Data Browser to obtain the RTs of the peak for each individual compound and standards. […]
ChromLogD values for the compounds were then calculated based on the regression curve. […]

VHL [2] = target: T1, VHL (Homo sapiens, UniProt P40337); test: NanoBRET VHL target engagement, live-cell mode; assay type: cell-based; details: for pIC50: HEK293 transfected with VHL-NanoLuc, live cells, tracer 1 μM
T1 construct: host or cells: HEK293, transient transfection
Source text: (§1) To this end, we assessed the PROTAC cellular permeability by evaluating VHL target engagement using the Promega NanoBRET TE Intracellular E3 Ligase.[62] Current PROTAC permeability assays use artificial systems like PAMPA and Caco-2, designed for small molecules but not always effective for PROTACs due to their low permeability, high molecular weight and assay caveats (i.e., unspecific binding and low recovery).[63],[64] The NanoBRET assay is a high-throughput method validated for measuring E3 ligase engagement in live and permeabilised cells. The assay allows to rank PROTAC intracellular availability through competitive probe displacement and offers a simple workflow for prioritising compounds based on properties associated with permeability. […] Specifically, in the live-cell mode, the assay measures the apparent cellular affinity, where the plasma membrane is intact and can impede the compound’s access to its target. In the permeabilised-cell mode, the barrier posed by the plasma membrane is removed and the intrinsic affinity of the compound for target is measured. […] The ratio of potencies between live-cell and permeabilised-cell modes, referred to as the relative-binding affinity (RBA) value increases as intracellular availability decreases and is thus a metric for assessing a PROTAC̀s cellular availability. […]

Plasma stability assay = assay type: in vitro ADME; details: mouse plasma; read-out: stability T1/2 in mouse plasma
Procedure: Frozen plasma was thawed at 37 °C and centrifuged at 3000 rpm for 8 min to remove clots, and the supernatant was used in the experiment. The pH of the plasma was recorded, and only the pH range between 7.4 and 8 was used. The plasma and compound solution were prewarmed to 37 °C. 10 µL of prewarmed testing compound or reference compound (procaine) solution (20 μM in 0.05 mM sodium phosphate buffer (pH 7.4) with 0.5% BSA) was mixed with 90 μL of plasma at different time points to allow for 5, 15, 30, 45, and 60 min of incubation time. For 0 min, the plasma was mixed with vehicle only. Acetonitrile was added to the compound and plasma mixture to quench the reaction, and the resulting mixture was centrifuged (5594g for 15 min). The

VHL [3] = target: T1, VHL; test: NanoBRET VHL target engagement, permeabilised-cell mode; assay type: cell-based; details: HEK293 transfected with VHL-NanoLuc, tracer 0.5 μM
Source text: as §1

CRBN = target: T2, CRBN (Homo sapiens, UniProt Q96SW2); set-up: method as in PMID 30826187; details: cited from earlier work
T2 construct: endogenous in cells; host or cells: HEK293 (ATCC)

pVHL30 [4] = target: T3, pVHL30 (Homo sapiens, UniProt P40337); test: Western blot VHL degradation in HEK293 cells; assay type: cell-based
T3 construct: endogenous in cells; host or cells: HEK293 (ATCC)
Procedure: To further elucidate the mode of action of FerroTAC AS2, we explored its dependency on ubiquitination and proteasome activity.
A) Representative immunoblots of VHL protein levels after treatment of
HEK293 cells. Cells were treated with 0.1% EtOH, 0.1 μM or 1 μM of the indicated compounds for 4 and 24 h.
Controls were included at 1 μM for 24 h. Mean values of two biologically independent experiments.
Representative time-course immunoblots of VHL protein levels after treatment of HEK293 cells treated with
Cells were treated with 0.1% EtOH and controls at 1 μM. Mean values of two biologically
independent experiments. Apparent half-life values (t 1/2) were estimated by fitting band intensity against time
using a single-phase exponential decay model. C) Representative immunoblots of VHL protein levels in
neddylation inhibitor MLN4924 (3 μM) and VHL inhibitor VH032 (50 μM). The amount of EtOH (0.1%) and
DMSO (0.5%) is fixed in all samples. Band quantification was performed using ImageJ software and reported
(in black and black) as relative amount as ratio of each protein band relative to the lane’s loading control
(tubulin). VHL/tubulin protein ratios were normalised to the average of the controls (100%).
HEK293 and HCT116 cell lines, purchased from ATCC, were cultured in Dulbecco’s modified Eagle’s medium (DMEM, Gibco) supplemented with 10% fetal bovine serum (FBS, Gibco), L-glutamine (2 mM, Gibco) and 100 μg/mL of penicillin/streptomycin (Gibco). All cell lines were maintained in a humidified incubator at 37 °C and 5% CO2 for no more than 30 passages. Cells were routinely tested for mycoplasma contamination.
Cell Treatment for Immunoblotting
depending on the experimental setup. Cells were treated in fresh medium with the indicated compounds under indicated conditions with a final EtOH or iPrOH concentration of 0.01% (v/v) to 0.1% (v/v) depending on the experimental setup. […]
stored at −80°C. Protein concentration was determined by bicinchoninic acid (BCA) assay (Thermo Fisher […]
Quantitative Immunoblotting […]

pVHL30 [5] = target: T3, pVHL30; set-up: method as in PMID 29018234; details: cited from earlier work

T3 sequence (P40337 whole entry): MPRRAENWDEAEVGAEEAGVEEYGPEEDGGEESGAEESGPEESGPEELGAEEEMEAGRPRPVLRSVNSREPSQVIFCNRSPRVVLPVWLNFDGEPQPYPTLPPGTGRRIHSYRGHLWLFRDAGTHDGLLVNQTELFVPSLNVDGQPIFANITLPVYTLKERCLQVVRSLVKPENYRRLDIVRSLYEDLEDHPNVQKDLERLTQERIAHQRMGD
T1 sequence (P40337 whole entry): as above
T2 sequence (Q96SW2 whole entry): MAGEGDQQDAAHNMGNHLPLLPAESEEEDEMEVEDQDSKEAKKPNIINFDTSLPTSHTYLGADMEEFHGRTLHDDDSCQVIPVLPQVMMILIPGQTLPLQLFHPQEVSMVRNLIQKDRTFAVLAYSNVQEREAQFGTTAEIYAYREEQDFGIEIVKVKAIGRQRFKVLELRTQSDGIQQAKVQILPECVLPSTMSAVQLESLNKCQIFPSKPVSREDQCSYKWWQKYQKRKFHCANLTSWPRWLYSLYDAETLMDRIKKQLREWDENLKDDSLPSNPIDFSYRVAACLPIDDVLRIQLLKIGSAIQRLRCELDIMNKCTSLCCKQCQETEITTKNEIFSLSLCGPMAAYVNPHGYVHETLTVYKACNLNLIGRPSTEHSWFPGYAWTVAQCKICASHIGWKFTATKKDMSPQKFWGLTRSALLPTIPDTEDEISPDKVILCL

| logD [1] | AI (availability index = RBAPROTAC ÷ RBAVH298) (VHL [2]) | RBA (relative binding affinity = IC50live ÷ IC50perm) (VHL [2]) | fold lower potency in live-cell vs permeabilised-cell assay (VHL [2]) [fold] | pIC50 (VHL [2]) | half-life at 2 µM (Plasma stability assay) [h] | pIC50 (VHL [3]) | Dmax at 1 µM (pVHL30 [4]; HEK293, 4 h, read-out: Dmax at 1 μM (pVHL30)) [%] | Dmax at 1 µM (pVHL30 [4]; HEK293, 24 h, read-out: maximal degradation (Dmax) of pVHL30) [%] | Compound | DC50 (CRBN) [nM] | t1/2 (pVHL30 degradation half-life) (pVHL30 [5]; 1 μM, calculated from ref 38) [min] | DC50 (pVHL30 [5]; reference value, CM11 only run at 1 μM here, read-out: DC50 ± S.D (pVHL30)) [nM] |
| --- | --- | --- | --- | --- | --- | --- | --- | --- | --- | --- | --- | --- |
| 3.3 | 4.2 | 4.4 | 4 | 5.88 | 0.557 | 6.52 |  |  | Cc1ncsc1-c1ccc(CNC(=O)[C@@H]2C[C@@H](O)CN2C(=O)[C@@H](NC(=O)CCCCCOCCOCCCCCC(=O)Nc2cccc3c2C(=O)N(C2CCC(=O)NC2=O)C3=O)C(C)(C)C)cc1 (stereo partly drawn) [14a] | 200 |  |  |
| 2.9 | 1.4 | 1.4 |  | 6.35 | 3.9 | 6.52 | 98 | 100 | Cc1ncsc1-c1ccc(CNC(=O)[C@@H]2C[C@@H](O)CN2C(=O)[C@@H](NC(=O)COCCOCCOCCOCCOCCOCC(=O)N[C@H](C(=O)N2C[C@H](O)C[C@H]2C(=O)NCc2ccc(-c3scnc3C)cc2)C(C)(C)C)C(C)(C)C)cc1 [CM11] |  | 85.1 | < 100 |
